Data from article PMC6443933, “Antagonizing Retinoic Acid-Related-Orphan Receptor Gamma Activity Blocks the T Helper 17/Interleukin-17 Pathway Leading to Attenuated Pro-inflammatory Human Keratinocyte and Skin Responses” (Frontiers in Immunology, 2019).

Assays:
[1] = test system: CD4+ CD25 high gated PBMCs; experiment: FoxP3 expression in CD4+ CD25 high T-cells under Treg inducing conditions; format: cell-based, human; conditions: 96 h Treg inducing conditions, vs DMSO
Procedure: PBMCs from freshly drawn heparinized blood originating from healthy volunteers were isolated by density gradient centrifugation using Ficoll Paque (GE). PBMCs (1 × 10^5/well) were incubated for 96 h in the presence of DMSO or Cpd A (1 μM) together with anti-CD3 (3 ng/ml, clone OKT-3, BioXcell), anti-CD28 (30 ng/ml, clone CD28.2, BioLegend), TGF-β1 (0.2 ng/ml, Biolegend), IL-2 (15 ng/ml, Biolegend), anti-IFN-γ antibody (5 μg/ml, Biolegend), and anti-IL-4 (5 μg/ml, Biolegend). Cells were prepared for CD4/CD25 surface staining, followed by intracellular FoxP3 staining.
For FoxP3 detection within the CD4^+ CD25 high T-cells, surface staining was performed for 20 min with FITC labeled CD4 antibody and anti-CD25 BV421 antibody (BD Bioscience). After surface staining, the cells were washed, fixed and permeabilized according to the manufacturer's instructions (eBioscience) prior to intracellular staining with APC labeled FoxP3 antibody (eBioscience). Data were acquired on a LSR Fortessa (BD Bioscience) and analyzed using FlowJo software (Tree Star). FoxP3 expression was determined in gated CD4^+ CD25 high T-cells that were treated with DMSO or with Cpd A.

RORα = test system: T1, RORα; experiment: RORα LBD-GAL4 reporter gene assay in Jurkat cells; format: cell-based, human
T1 construct: RORα and RORβ we performed LBD-GAL4 reporter gene assays; expressed in transfected cells; host or cells: Jurkat cells stably carrying pGL4.35
Procedure: Selectivity against other ROR family members was assessed in a GAL4 reporter gene assay as previously described ([44]). Briefly, Jurkat cells stably expressing the pGL4.35 plasmid (Promega) containing nine GAL4 binding sites inducing the transcription of the luciferase reporter gene were transiently transfected with the human RORα, RORβ or RORγt-LBD/GAL4-DBD constructs. After 24 h post-transfection, cells were incubated with Cpd A for an additional 24 h before luciferase activity was determined using an EnVision Multilabel Plate Reader (Perkin Elmer).

total CD4+ T-cells = experiment: Th0, Th1, Th2 polarization, signature cytokine ELISA; format: cell-based, human
Procedure: (§1) Total, naive and memory CD4^+ T cells were isolated from Peripheral blood mononuclear cells (PBMCs) from healthy volunteers by density gradient centrifugation using Ficoll Paque (GE). Total, naive or memory CD4^+ T-cells were prepared by immunomagnetic separation using the respective CD4^+ T-cell enrichment kits resulting in untouched highly purified subsets (EasySep™, Stem Cell). Purity was assessed by flow cytometry and was between 95 and 98% for the total CD4^+ T-cells. The purity of naive (CD45RA^+CD45RO^−) and memory (CD45RA^−CD45RO^+) CD4^+T-cells ranged between 95 and 98%, respectively. For T-cell stimulation experiments, cells were treated as previously published ([44]). Briefly, T-cells were stimulated with plate-bound monoclonal antibodies against CD3 (1 μg/ml, clone OKT-3, BioXcell) and CD28 (1 μg/ml, clone CD28.2, BioLegend). For Th17 polarization assays, IL-6 (20 ng/ml), TGF-β1 (5 ng/ml), IL-1β (10 ng/ml), and IL-23 (10 ng/ml) were added. For Th1 polarization assays, IL-12 (10 ng/ml) and anti-IL-4 antibody (5 μg/ml), for Th2 polarizations, IL-4 (10 ng/ml) and anti-IFN-γ antibody (5 μg/ml) were added. For Th0 polarization assays, cells were only stimulated with CD3 and CD28 antibodies. Supernatants were collected after 3 or 7 days of incubation for total or naive/memory CD4^+ T-cell polarizations, respectively. Cytokine concentrations were quantified by ELISA according to the manufacturer's instructions (eBioscience or BioLegend).

[2] = test system: memory human CD4+ T-cells; experiment: Th17 polarization of memory CD4+ T-cells, IL-17A ELISA; format: cell-based; conditions: T-cell, 168 h, Th17 differentiation 7 days, read-out: IC50, IL-17A secretion
Procedure: as §1, with “Supernatants were collected after 3 or 7 days of incubation for total or naive/memory CD4^+ T-cell polarizations, respectively.” left out

full-length RORγt = molecular target: T2, full-length RORγt (Homo sapiens, UniProt P51449); experiment: 4 x RORE luciferase reporter assay in HUT78 T-cells expressing full-length RORγt; format: cell-based; conditions: CD3 antibody plus PMA, 48 h, read-out: IC50, 4 x RORE-driven luciferase activity
T2 construct: HUT78 T-cells stably expressing full-length eGFP-RORγt; eGFP; expressed in transfected cells
T2 sequence (P51449 1-497 isoform P51449-2): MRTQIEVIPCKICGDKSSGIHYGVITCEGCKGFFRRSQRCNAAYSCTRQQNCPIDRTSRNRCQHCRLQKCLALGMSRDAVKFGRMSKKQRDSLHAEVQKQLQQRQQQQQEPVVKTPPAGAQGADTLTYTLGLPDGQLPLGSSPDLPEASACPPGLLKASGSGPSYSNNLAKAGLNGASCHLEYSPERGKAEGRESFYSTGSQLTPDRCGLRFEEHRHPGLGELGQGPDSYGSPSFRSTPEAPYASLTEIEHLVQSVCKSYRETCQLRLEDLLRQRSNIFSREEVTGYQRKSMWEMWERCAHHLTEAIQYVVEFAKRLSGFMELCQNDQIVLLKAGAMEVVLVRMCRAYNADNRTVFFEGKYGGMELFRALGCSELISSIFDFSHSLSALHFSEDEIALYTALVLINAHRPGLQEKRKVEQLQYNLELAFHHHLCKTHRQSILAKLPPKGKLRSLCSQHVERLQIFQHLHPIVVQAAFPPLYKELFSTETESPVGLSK
Description: HUT78 T-cells stably expressing full-length eGFP-RORγt or eGFP-empty vector were generated as described before ([45]). Cells were transfected with plasmids containing 4 × ROREs inserted into the pGL4.17 luciferase Firefly reporter plasmid (kindly provided by Dr. Juergen Reinhardt, Novartis). As a control construct, a mutated or a non-functional form of 4 × RORE (Mut-RORE), was transfected in eGFP-RORγt HUT78 T-cells. The plasmids contained the following sequences where the bold nucleotides represent the putative RORγt binding site or the mutated form of the RORE:
Two days after transfection, cells were incubated in X-vivo 15 medium containing 10% FCS and 700 μg/ml Geneticin (Corning) and stable clones expressing the 4 × ROREs or mutated-ROREs were obtained by limiting dilution. The luciferase expression of the individual cell clones was measured using Luciferase detection buffer (Perkin Elmer) and the RORC mRNA expression of the selected clones were quantified by qRT-PCR. […]

Q: What does the source list for Cc1ccc(C(=O)Nc2cn3ccnc3c(CN3CCN(c4noc(C(C)(C)C)n4)[C@@H](C)C3)c2C)cn1 [Cpd A, (S)-N-(8-((4-(5-(tert-butyl)-1,2,4-oxadiazol-3-yl)-3-methylpiperazin-1-yl)methyl)-7-methylimidazo[1,2-a]pyridin-6-yl)-6-methylnicotinamide]?
A: FoxP3 expression [1]: did not result in altered FoxP3 expression; activity toward RORα (LBD-GAL4 reporter) (RORα): lacked activity; Th2 signature cytokine production (IL-13) (total CD4+ T-cells; IL-4 and anti-IFN-γ antibody): did not have any impact; Th1 signature cytokine production (IFN-γ) (total CD4+ T-cells; IL-12 and anti-IL-4 antibody): did not have any impact; Th0 signature cytokine production (IL-2) (total CD4+ T-cells; anti-CD3 plus anti-CD28 only): did not have any impact; IC50 [2]: 0.027 µM; IC50 (full-length RORγt): 0.064 µM
